In patent US20230085307A1, “PYRIDAZINONE COMPOUND AND HERBICIDE” (NISSAN CHEMICAL CORPORATION, priority 2019, published 2023):

Assays:
Italian ryegrass [1] = assay: Test Example 4: herbicidal effect by soil treatment (Table 19, symbol K); assay type: in vivo, Italian ryegrass (Lolium multiflorum); conditions: amount of applied herbicide 320 g/ha
Method in brief: (§1)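 In this soil treatment, the formulated compound reached the seeds only through the soil: seeds were buried about 1.5 cm deep in sterilized diluvial soil, then the diluted emulsion was sprayed over the surface. After three weeks at 25° C. to 30° C. in a greenhouse, effects were graded on criteria from an earlier test.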

wild oat [2] = assay: Test Example 4: herbicidal effect by soil treatment (Table 19, symbol I); assay type: in vivo, wild oat (Avena fatua); conditions: amount of applied herbicide 320 g/ha
Method in brief: as §1

barnyard grass [3] = assay: Test Example 4: herbicidal effect by soil treatment (Table 19, symbol H); assay type: in vivo, barnyard grass (Echinochloa crus-galli); conditions: amount of applied herbicide 320 g/ha
Method in brief: as §1

green foxtail [4] = assay: Test Example 4: herbicidal effect by soil treatment (Table 19, symbol G); assay type: in vivo, green foxtail (Setaria viridis); conditions: amount of applied herbicide 320 g/ha
Method in brief: as §1

redroot pigweed [5] = assay: Test Example 4: herbicidal effect by soil treatment (Table 19, symbol N); assay type: in vivo, redroot pigweed (Amaranthus retroflexus); conditions: amount of applied herbicide 320 g/ha
Method in brief: as §1

lambsquarters [6] = assay: Test Example 4: herbicidal effect by soil treatment (Table 19, symbol O); assay type: in vivo, lambsquarters (Chenopodium album); conditions: amount of applied herbicide 320 g/ha
Method in brief: as §1

windgrass [7] = assay: Test Example 4: herbicidal effect by soil treatment (Table 19, symbol L); assay type: in vivo, windgrass (Apera spica-venti); conditions: amount of applied herbicide 320 g/ha
Method in brief: as §1

false cleavers = assay: Test Example 4: herbicidal effect by soil treatment (Table 19, symbol Q); assay type: in vivo, false cleavers (Galium spurium); conditions: amount of applied herbicide 320 g/ha
Method in brief: as §1

persian speedwell [8] = assay: Test Example 4: herbicidal effect by soil treatment (Table 19, symbol R); assay type: in vivo, Persian speedwell (Veronica persica); conditions: amount of applied herbicide 320 g/ha
Method in brief: as §1

velvetleaf [9] = assay: Test Example 4: herbicidal effect by soil treatment (Table 19, symbol M); assay type: in vivo, velvetleaf (Abutilon theophrasti); conditions: amount of applied herbicide 320 g/ha
Method in brief: as §1

southern crabgrass [10] = assay: Test Example 4: herbicidal effect by soil treatment (Table 19, symbol F); assay type: in vivo, southern crabgrass (Digitaria ciliaris); conditions: amount of applied herbicide 320 g/ha
Method in brief: as §1

blackgrass [11] = assay: Test Example 4: herbicidal effect by soil treatment (Table 19, symbol J); assay type: in vivo, blackgrass (Alopecurus myosuroides); conditions: amount of applied herbicide 320 g/ha
Method in brief: as §1

chickweed [12] = assay: Test Example 4: herbicidal effect by soil treatment (Table 19, symbol P); assay type: in vivo, common chickweed (Stellaria media); conditions: amount of applied herbicide 320 g/ha
Method in brief: as §1

velvetleaf [13] = assay: Test Example 5: herbicidal effect by foliage application, plastic box (Table 20, symbol M); assay type: in vivo, velvetleaf (Abutilon theophrasti); conditions: foliage application, 320 g/ha, evaluated 3 weeks after application
Method in brief: (§2)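 Plants were sown into sterilized diluvial soil under about 1.5 cm cover and kept in a greenhouse at 25° C. to 30° C. Fourteen days on, foliage received an even spray of the diluted emulsion. Herbicidal or crop effect was judged three weeks afterwards.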

blackgrass [14] = assay: Test Example 5: herbicidal effect by foliage application, plastic box (Table 20, symbol J); assay type: in vivo, blackgrass (Alopecurus myosuroides); conditions: foliage application, 320 g/ha, evaluated 3 weeks after application
Method in brief: as §2

Chinese sprangletop = assay: Test Example 3: herbicidal effect by foliage application, Wagner pot (Table 18, symbol D); assay type: in vivo, chinese sprangletop (Leptochloa chinensis); conditions: amount of applied herbicide 320 g/ha
Method in brief: (§3)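 Plants were sown in alluvial soil held under 0.1–0.5 cm standing water and grown 14 days in a greenhouse at 25–30 °C. An emulsifiable formulation, water-diluted to the set dose, was then sprayed onto the foliage, and effects were scored three weeks later using previously defined criteria.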

wild oat [15] = assay: Test Example 5: herbicidal effect by foliage application, plastic box (Table 20, symbol I); assay type: in vivo, wild oat (Avena fatua); conditions: foliage application, 320 g/ha, evaluated 3 weeks after application
Method in brief: as §2

redroot pigweed [16] = assay: Test Example 5: herbicidal effect by foliage application, plastic box (Table 20, symbol N); assay type: in vivo, redroot pigweed (Amaranthus retroflexus); conditions: foliage application, 320 g/ha, evaluated 3 weeks after application
Method in brief: as §2

chickweed [17] = assay: Test Example 5: herbicidal effect by foliage application, plastic box (Table 20, symbol P); assay type: in vivo, common chickweed (Stellaria media); conditions: foliage application, 320 g/ha, evaluated 3 weeks after application
Method in brief: as §2

rice flat sedge = assay: Test Example 3: herbicidal effect by foliage application, Wagner pot (Table 18, symbol E); assay type: in vivo, rice flat sedge (Cyperus iria); conditions: amount of applied herbicide 320 g/ha
Method in brief: as §3

green foxtail [18] = assay: Test Example 5: herbicidal effect by foliage application, plastic box (Table 20, symbol G); assay type: in vivo, green foxtail (Setaria viridis); conditions: foliage application, 320 g/ha, evaluated 3 weeks after application
Method in brief: as §2

lambsquarters [19] = assay: Test Example 5: herbicidal effect by foliage application, plastic box (Table 20, symbol O); assay type: in vivo, lambsquarters (Chenopodium album); conditions: foliage application, 320 g/ha, evaluated 3 weeks after application
Method in brief: as §2

barnyard grass [20] = assay: Test Example 5: herbicidal effect by foliage application, plastic box (Table 20, symbol H); assay type: in vivo, barnyard grass (Echinochloa crus-galli); conditions: foliage application, 320 g/ha, evaluated 3 weeks after application
Method in brief: as §2

barnyard grass [21] = assay: Test Example 3: herbicidal effect by foliage application, Wagner pot (Table 18, symbol H); assay type: in vivo, barnyard grass (Echinochloa crus-galli); conditions: amount of applied herbicide 320 g/ha
Method in brief: as §3

southern crabgrass [22] = assay: Test Example 5: herbicidal effect by foliage application, plastic box (Table 20, symbol F); assay type: in vivo, southern crabgrass (Digitaria ciliaris); conditions: foliage application, 320 g/ha, evaluated 3 weeks after application
Method in brief: as §2

Italian ryegrass [23] = assay: Test Example 5: herbicidal effect by foliage application, plastic box (Table 20, symbol K); assay type: in vivo, Italian ryegrass (Lolium multiflorum); conditions: foliage application, 320 g/ha, evaluated 3 weeks after application
Method in brief: as §2

persian speedwell [24] = assay: Test Example 5: herbicidal effect by foliage application, plastic box (Table 20, symbol R); assay type: in vivo, Persian speedwell (Veronica persica); conditions: foliage application, 320 g/ha, evaluated 3 weeks after application
Method in brief: as §2

windgrass [25] = assay: Test Example 5: herbicidal effect by foliage application, plastic box (Table 20, symbol L); assay type: in vivo, windgrass (Apera spica-venti); conditions: foliage application, 320 g/ha, evaluated 3 weeks after application
Method in brief: as §2

| Structure (SMILES) | K: Italian ryegrass, herbicidal effect grade (Italian ryegrass [1]) | I: wild oat, herbicidal effect grade (wild oat [2]) | H: barnyard grass, herbicidal effect grade (barnyard grass [3]) | G: green foxtail, herbicidal effect grade (green foxtail [4]) | N: redroot pigweed, herbicidal effect grade (redroot pigweed [5]) | O: lambsquarters, herbicidal effect grade (lambsquarters [6]) | L: windgrass, herbicidal effect grade (windgrass [7]) | Q: false cleavers, herbicidal effect grade (false cleavers) | R: persian speedwell, herbicidal effect grade (persian speedwell [8]) | M: velvetleaf, herbicidal effect grade (velvetleaf [9]) | F: southern crabgrass, herbicidal effect grade (southern crabgrass [10]) | P: chickweed, herbicidal effect grade (chickweed [12]) | also measured |
| --- | --- | --- | --- | --- | --- | --- | --- | --- | --- | --- | --- | --- | --- |
| CCCC(=O)Oc1c(C)nn(C)c(=O)c1-c1c(-c2ccc(OC)c(OC)c2)sc2cc(OC)ccc12 [3-081] | 0 (Herbicidal rate of 5% or less (almost no effect)) | 0 (Herbicidal rate of 5% or less (almost no effect)) | 0 (Herbicidal rate of 5% or less (almost no effect)) | 0 (Herbicidal rate of 5% or less (almost no effect)) | 0 (Herbicidal rate of 5% or less (almost no effect)) | 0 (Herbicidal rate of 5% or less (almost no effect)) | 0 (Herbicidal rate of 5% or less (almost no effect)) | 0 (Herbicidal rate of 5% or less (almost no effect)) | 2 (Herbicidal rate of 20% or more and less than 40%) | 0 (Herbicidal rate of 5% or less (almost no effect)) | 0 (Herbicidal rate of 5% or less (almost no effect)) | 0 (Herbicidal rate of 5% or less (almost no effect)) | J: blackgrass, herbicidal effect grade (blackgrass [11]): 0 (Herbicidal rate of 5% or less (almost no effect)) |
| Cc1ccc2oc(-c3ccc(OC(F)F)cc3)c(-c3c(O)c(C)nn(C)c3=O)c2c1 [9-053] | 5 (Herbicidal rate of 90% or more (almost completely withered)) | 0 (Herbicidal rate of 5% or less (almost no effect)) | 4 (Herbicidal rate of 70% or more and less than 90%) | 4 (Herbicidal rate of 70% or more and less than 90%) | 5 (Herbicidal rate of 90% or more (almost completely withered)) | 5 (Herbicidal rate of 90% or more (almost completely withered)) | 0 (Herbicidal rate of 5% or less (almost no effect)) | 0 (Herbicidal rate of 5% or less (almost no effect)) | 4 (Herbicidal rate of 70% or more and less than 90%) | 4 (Herbicidal rate of 70% or more and less than 90%) | 2 (Herbicidal rate of 20% or more and less than 40%) | 3 (Herbicidal rate of 40% or more and less than 70%) | M (velvetleaf) herbicidal effect grade (velvetleaf [13]): 5 (Herbicidal rate of 90% or more (almost completely withered)); J (blackgrass) herbicidal effect grade (blackgrass [14]): 4 (Herbicidal rate of 70% or more and less than 90%); Herbicidal effect on D (Chinese sprangletop), foliage application (Chinese sprangletop): 0 (Herbicidal rate of 5% or less (almost no effect)); I (wild oat) herbicidal effect grade (wild oat [15]): 0 (Herbicidal rate of 5% or less (almost no effect)); N (redroot pigweed) herbicidal effect grade (redroot pigweed [16]): 5 (Herbicidal rate of 90% or more (almost completely withered)); P (chickweed) herbicidal effect grade (chickweed [17]): 5 (Herbicidal rate of 90% or more (almost completely withered)); Herbicidal effect on E (rice flat sedge), foliage application (rice flat sedge): 4 (Herbicidal rate of 70% or more and less than 90%); G (green foxtail) herbicidal effect grade (green foxtail [18]): 4 (Herbicidal rate of 70% or more and less than 90%); O (lambsquarters) herbicidal effect grade (lambsquarters [19]): 5 (Herbicidal rate of 90% or more (almost completely withered)); H (barnyard grass) herbicidal effect grade (barnyard grass [20]): 3 (Herbicidal rate of 40% or more and less than 70%); Herbicidal effect on H (barnyard grass), foliage application (barnyard grass [21]): 4 (Herbicidal rate of 70% or more and less than 90%); F (southern crabgrass) herbicidal effect grade (southern crabgrass [22]): 3 (Herbicidal rate of 40% or more and less than 70%); K (Italian ryegrass) herbicidal effect grade (Italian ryegrass [23]): 5 (Herbicidal rate of 90% or more (almost completely withered)); R (persian speedwell) herbicidal effect grade (persian speedwell [24]): 5 (Herbicidal rate of 90% or more (almost completely withered)); L (windgrass) herbicidal effect grade (windgrass [25]): 3 (Herbicidal rate of 40% or more and less than 70%) |
